Two compounds from US7345079B2, “Treatment of disorder related to low cyclic GMP levels” (Yung Shin Pharmaceuticals Industrial Co., Ltd, priority 2001, dated 2008) can be followed below.

Data set [1] concerns the target T1, PDE 5 (Homo sapiens, UniProt O76074).
T1 construct: Washed human platelets were prepared by the method described in Teng et al; from tissue; host or cells: human platelets (sonicated lysate, 39,000×g supernatant)
Description: Inhibition of PDE 5 (human platelet lysate, cGMP hydrolysis). The format is biochemical. Conditions: PDE 5 from washed human platelet supernatant; 10 μM cGMP; 37° C. 30 minutes; read-out: IC50 in inhibiting PDE 5. The procedure: A suitable in vitro assay can be used to preliminarily evaluate the effect of a fused pyrazolyl compound on inhibiting a PDE, which hydrolyzes cGMP. For example, platelets are washed, suspended in a buffer, and disrupted by sonication to obtain a solution containing a PDE. A compound to be tested and cGMP (a substrate for the PDE) are added to the solution. Ophiophagus hannah snake venom is subsequently added to remove the phosphate in 5′-GMP (converted from cGMP by the PDE) to form uncharged guanosine. An ion-exchange resin is used to remove the remaining cGMP. The cGMP-free solution is then centrifuged, and an aliquot of the supernatant is taken for quantification of the uncharged guanosine in a liquid scintillation counter. Activity of the PDE is evaluated based on the amount of the uncharged guanosine. In vivo screening can be performed by following procedures well known in the art.
Washed human platelets were prepared by the method described in Teng et al. Biochem. Biophys. Acta. 1989, 990, 315-320, suspended in 50 mM pH 7.4 Tris-HCl buffer (containing 5 mM MgCl2), and then disrupted by sonication at 4° C. […] The cGMP-free solution thus obtained was then centrifuged, and 0.5 mL of the supernatant was taken for quantification of uncharged guanosine in a liquid scintillation counter.

Consider `COc1ccc2c(-c3ccc(CO)o3)nn(Cc3ccccc3)c2c1` [Compound 1, 1-benzyl-3-(5′-hydroxymethyl-2′-furyl)-6-methoxyindazole], for which the melting point fell in the range of 109 to 110 °C. Also, the IC50 in data set [1] is 3.5 µM. `OCc1ccc(-c2nn(Cc3ccccc3)c3cc4c(cc23)OCO4)o1` [Compound 4, 1-benzyl-3-(5′-hydroxymethyl-2′-furyl)-5,6-methylenedioxoindazole] registered a melting point of 122 to 123 °C.
